Laboratory results: US20230265116A1, “DEGRADATION OF (EGFR) BY CONJUGATION OF EGFR INHIBITORS WITH E3 LIGASE LIGAND AND METHODS OF USE” (BEIGENE, LTD., priority 2020, published 2023)
Read-outs that look alike come from different tables or passages of the source.

Columns and labels:
[1] = system: EGFR Del19/T790M/C797S (H1975-clone #28); experiment: EGFR degradation HTRF assay, H1975-clone #28 DTC cells; format: cell-based
How it was run: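 Engineered H1975 lines (lentiviral mutant EGFR, endogenous EGFR knocked out, single-clone verified); 16h compound, 37° C., 5% CO2, 0.2% DMSO; 8-point 5-fold series from 10 uM final. HTRF lysate read; % degradation vs DMSO, four-parameter fit → DC50, Dmax.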

[2] = target: T1, EGFR L858R/T790M/C797S (BaF3-LTC cells) (Homo sapiens, UniProt P00533, C797S/L858R/T790M); experiment: EGFR degradation HTRF assay, BaF3-LTC cells; format: cell-based
T1 construct: expressed in transfected cells; host or cells: BaF3
How it was run: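 EGFR remaining after a 16 h, 37 °C exposure (8 doses, 5-fold steps from 10 uM final, 0.2% DMSO) was quantified by HTRF antibodies in cell lysate. Percent inhibition relative to DMSO control was fitted by four-parameter logistic to give DC50; Dmax denotes maximal degradation.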

[3] = H1975 # 28 DTC cells; EGFR degradation, IC50 (DC50) from curve fit; read-out: DC50(nM) H1975 # 28 DTC
[4] = H1975 # 28 DTC cells; maximum percentage of inhibition (degradation)
[5] = BaF3-LTC cells; EGFR degradation, IC50 (DC50) from curve fit; read-out: DC50(nM) BaF3-LTC
[6] = BaF3-LTC cells; maximum percentage of inhibition (degradation); read-out: Dmax (%) BaF3-LTC

T1 sequence (P00533 25-1210 T790M/C797S/L858R): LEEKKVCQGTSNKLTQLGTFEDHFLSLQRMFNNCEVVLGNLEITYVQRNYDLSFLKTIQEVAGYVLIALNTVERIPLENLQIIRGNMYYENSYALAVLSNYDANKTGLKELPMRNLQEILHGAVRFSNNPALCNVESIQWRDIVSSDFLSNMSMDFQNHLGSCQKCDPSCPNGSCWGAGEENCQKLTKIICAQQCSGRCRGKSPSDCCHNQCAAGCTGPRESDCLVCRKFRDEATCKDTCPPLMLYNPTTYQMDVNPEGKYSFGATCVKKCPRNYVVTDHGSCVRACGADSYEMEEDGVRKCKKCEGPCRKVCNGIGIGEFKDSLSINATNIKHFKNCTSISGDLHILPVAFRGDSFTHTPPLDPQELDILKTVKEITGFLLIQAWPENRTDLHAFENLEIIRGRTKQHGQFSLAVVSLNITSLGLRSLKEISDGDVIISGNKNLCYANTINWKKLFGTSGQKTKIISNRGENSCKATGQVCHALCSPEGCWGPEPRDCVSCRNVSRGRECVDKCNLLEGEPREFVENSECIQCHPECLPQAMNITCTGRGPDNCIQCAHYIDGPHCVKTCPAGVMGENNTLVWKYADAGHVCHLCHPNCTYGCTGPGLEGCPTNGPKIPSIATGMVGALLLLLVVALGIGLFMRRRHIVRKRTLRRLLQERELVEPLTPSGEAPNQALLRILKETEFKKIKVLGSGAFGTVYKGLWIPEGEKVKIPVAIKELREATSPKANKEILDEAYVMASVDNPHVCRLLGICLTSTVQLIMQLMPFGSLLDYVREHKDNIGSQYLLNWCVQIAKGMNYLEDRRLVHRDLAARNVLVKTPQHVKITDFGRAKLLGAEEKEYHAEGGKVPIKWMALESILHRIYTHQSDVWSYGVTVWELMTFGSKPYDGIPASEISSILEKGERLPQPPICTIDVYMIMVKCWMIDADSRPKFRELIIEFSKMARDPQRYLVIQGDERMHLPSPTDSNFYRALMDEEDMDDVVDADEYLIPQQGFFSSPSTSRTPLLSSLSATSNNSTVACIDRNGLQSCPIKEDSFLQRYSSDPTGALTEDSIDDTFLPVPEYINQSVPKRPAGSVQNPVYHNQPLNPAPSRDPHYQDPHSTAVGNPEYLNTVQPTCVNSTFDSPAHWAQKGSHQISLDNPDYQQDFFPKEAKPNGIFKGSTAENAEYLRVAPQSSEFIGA

DC50 [1, 3] [nM] | DC50 [2, 5] [nM] | Dmax [2, 6] [%] | Compound | Dmax (%) H1975 # 28 DTC [1, 4] [%] | DC50 ([1]; read-out: DC50(nM) H1975 # 28 DTC; H1975 # 28 DTC cells; EGFR degradation, IC50 (DC50) from curve fit) [nM] | DC50 ([2]; read-out: DC50(nM) BaF3-LTC; BaF3-LTC cells; EGFR degradation, IC50 (DC50) from curve fit) [nM] | Dmax ([2]; read-out: Dmax (%) BaF3-LTC, BaF3-LTC cells; maximum percentage of inhibition (degradation)) [%]
1.68 | 10.3 | 89.5 | CCOc1cc(N2CCC(N3CCN(C[C@H]4CCN(c5cccc6c5oc(=O)n6C5CCC(=O)NC5=O)C4)CC3)CC2)c(CC)cc1Nc1ncc(Br)c(Nc2ccc3nc(CC)ccc3c2P(C)(C)=O)n1 (stereo partly drawn) [Example 561, 3-(7-((R)-3-((4-(1-(4-((5-bromo-4-((5-(dimethylphosphoryl)-2-ethylquinolin-6-yl)amino)pyrimidin-2-yl)amino)-5-ethoxy-2-ethylphenyl)piperidin-4-yl)piperazin-1-yl)methyl)pyrrolidin-1-yl)-2-oxobenzo[d]oxazol-3(2H)-yl)piperidine-2,6-dione] | 77.5 | – | – | –
0.723 | 6.6 | 86.9 | CCOc1cc(N2CCC(N3CCN(CCc4cc(F)c([C@H]5CCC(=O)NC5=O)c(F)c4)CC3)CC2)c(CC)cc1Nc1ncc(Br)c(Nc2cc(F)c3ncc(C)cc3c2P(C)(C)=O)n1 [Example 672, (R)-3-(4-(2-(4-(1-(4-((5-bromo-4-((5-(dimethylphosphoryl)-8-fluoro-3-methylquinolin-6-yl)amino)pyrimidin-2-yl)amino)-5-ethoxy-2-ethylphenyl)piperidin-4-yl)piperazin-1-yl)ethyl)-2,6-difluorophenyl)piperidine-2,6-dione] | 87.05 | – | – | –
1.48 | 12.5 | 90.3 | CCc1cc(Nc2ncc(Br)c(Nc3ccc4nc(C)ccc4c3P(C)(C)=O)n2)c(OC2CC2)cc1N1CCC(N2CCN(C(=O)[C@@H]3CCN(c4cc(F)c([C@H]5CCC(=O)NC5=O)c(F)c4)C3)CC2)CC1 [Example 544, (R)-3-(4-((R)-3-(4-(1-(4-((5-bromo-4-((5-(dimethylphosphoryl)-2-methylquinolin-6-yl)amino)pyrimidin-2-yl)amino)-5-cyclopropoxy-2-ethylphenyl)piperidin-4-yl)piperazine-1-carbonyl)pyrrolidin-1-yl)-2,6-difluorophenyl)piperidine-2,6-dione] | 81.13 | – | – | –
– | – | – | CCOc1cc(N2CCC(N3CCN(CCC4CCN(c5ccc6c(oc(=O)n6C6CCC(=O)NC6=O)c5F)CC4)CC3)CC2)c(CC)cc1Nc1ncc(Br)c(Nc2ccc3nc(CC)ncc3c2P(C)(C)=O)n1 (centres unmarked) [Example 612, 3-(6-(4-(2-(4-(1-(4-((5-bromo-4-((5-(dimethylphosphoryl)-2-ethylquinazolin-6-yl)amino)pyrimidin-2-yl)amino)-5-ethoxy-2-ethylphenyl)piperidin-4-yl)piperazin-1-yl)ethyl)piperidin-1-yl)-7-fluoro-2-oxobenzo[d]oxazol-3(2H)-yl)piperidine-2,6-dione] | 72.14 | 0.656 | 7.68 | 93.2
2.08 | 17.8 | – | CCOc1cc(N2CCC(N3CCN(CC4CN(c5cc(F)c([C@H]6CCC(=O)NC6=O)c(F)c5)C4)CC3)CC2)c(CC)cc1Nc1ncc(Br)c(Nc2ccc3nc(CC)ccc3c2P(C)(C)=O)n1 [Example 541, (R)-3-(4-(3-((4-(1-(4-((5-bromo-4-((5-(dimethylphosphoryl)-2-ethylquinolin-6-yl)amino)pyrimidin-2-yl)amino)-5-ethoxy-2-ethylphenyl)piperidin-4-yl)piperazin-1-yl)methyl)azetidin-1-yl)2,6-difluorophenyl)piperidine-2,6-dione] | 88.77 | – | – | –
0.986 | 16.1 | 92.2 | CCc1cc(Nc2ncc(Br)c(Nc3ccc4nc(C)ccc4c3P(C)(C)=O)n2)c(OC)cc1N1CCC(N2CCN(C3CCN(c4cc(F)c(C5CCC(=O)NC5=O)c(F)c4)CC3)CC2)CC1 (centres unmarked) [Example 694, 3-(4-(4-(4-(1-(4-((5-bromo-4-((5-(dimethylphosphoryl)-2-methylquinolin-6-yl)amino)pyrimidin-2-yl)amino)-2-ethyl-5-methoxyphenyl)piperidin-4-yl)piperazin-1-yl)piperidin-1-yl)-2,6-difluorophenyl)piperidine-2,6-dione] | 68.67 | – | – | –
1.38 | 14.8 | 93.3 | COc1cc(N2CCC(N3CC(C(=O)N4CCC(c5cc(F)c(C6CCC(=O)NC6=O)c(F)c5)CC4)C3)CC2)c(C)cc1Nc1ncc(Br)c(Nc2ccc3nc(C)ccc3c2P(C)(C)=O)n1 (centres unmarked) [Example 687, 3-(4-(1-(1-(1-(4-((5-bromo-4-((5-(dimethylphosphoryl)-2-methylquinolin-6-yl)amino)pyrimidin-2-yl)amino)-5-methoxy-2-methylphenyl)piperidin-4-yl)azetidine-3-carbonyl)piperidin-4-yl)-2,6-difluorophenyl)piperidine-2,6-dione] | 68.75 | – | – | –
1.18 | 4.11 | 87.4 | CCc1cc(Nc2ncc(Br)c(Nc3ccc4nc(C)ccc4c3P(C)(C)=O)n2)c(OC2CC2)cc1N1CCC(N2CCN(CC3CN(c4cccc5c4oc(=O)n5C4CCC(=O)NC4=O)C3)CC2)CC1 (centres unmarked) [Example 600, 3-(7-(3-((4-(1-(4-((5-bromo-4-((5-(dimethylphosphoryl)-2-methylquinolin-6-yl)amino)pyrimidin-2-yl)amino)-5-cyclopropoxy-2-ethylphenyl)piperidin-4-yl)piperazin-1-yl)methyl)azetidin-1-yl)-2-oxobenzo[d]oxazol-3(2H)-yl)piperidine-2,6-dione] | 83.32 | – | – | –
8.9 | 81.1 | – | CCOc1cc(N2CCC(N3CCN(CCc4cc(F)c([C@H]5CCC(=O)NC5=O)c(F)c4)CC3)CC2)c(CC)cc1Nc1ncc(Cl)c(Nc2cc(F)c3nc(CC)ccc3c2P(C)(C)=O)n1 [Example 730, (R)-3-(4-(2-(4-(1-(4-((5-chloro-4-((5-(dimethylphosphoryl)-2-ethyl-8-fluoroquinolin-6-yl)amino)pyrimidin-2-yl)amino)-5-ethoxy-2-ethylphenyl)piperidin-4-yl)piperazin-1-yl)ethyl)-2,6-difluorophenyl)piperidine-2,6-dione] | 81.41 | – | – | –
4.78 | 37.3 | 94 | CCOc1cc(N2CCC(N3CCN(CC4CN(c5cccc6c5n(C)c(=O)n6C5CCC(=O)NC5=O)C4)CC3)CC2)c(CC)cc1Nc1ncc(Br)c(Nc2ccc3c(=O)n(CC)ncc3c2P(C)(C)=O)n1 (centres unmarked) [Example 622, 3-(4-(3-((4-(1-(4-((5-bromo-4-((5-(dimethylphosphoryl)-2-ethyl-1-oxo-1,2-dihydrophthalazin-6-yl)amino)pyrimidin-2-yl)amino)-5-ethoxy-2-ethylphenyl)piperidin-4-yl)piperazin-1-yl)methyl)azetidin-1-yl)-3-methyl-2-oxo-2,3-dihydro-1H-benzo[d]imidazol-1-yl)piperidine-2,6-dione] | 75.46 | – | – | –
1.61 | 15 | 93.9 | CCOc1cc(N2CCC(N3CCN(CC4CCN(c5cc(F)cc6c5oc(=O)n6C5CCC(=O)NC5=O)CC4)CC3)CC2)c(CC)cc1Nc1ncc(Br)c(Nc2ccc3nc(CC)ccc3c2P(C)(C)=O)n1 (centres unmarked) [Example 621, 3-(7-(4-((4-(1-(4-((5-bromo-4-((5-(dimethylphosphoryl)-2-ethylquinolin-6-yl)amino)pyrimidin-2-yl)amino)-5-ethoxy-2-ethylphenyl)piperidin-4-yl)piperazin-1-yl)methyl)piperidin-1-yl)-5-fluoro-2-oxobenzo[d]oxazol-3(2H)-yl)piperidine-2,6-dione] | 77.44 | – | – | –
0.621 | 3.56 | 89.9 | CCc1ccc2c(P(C)(C)=O)c(Nc3nc(Nc4cc(CC)c(N5CCC(N6CCN(CCCc7ccc8c(c7)oc(=O)n8C7CCC(=O)NC7=O)CC6)CC5)cc4OC)ncc3Br)ccc2n1 (centres unmarked) [Example 456, 3-(6-(3-(4-(1-(4-((5-bromo-4-((5-(dimethylphosphoryl)-2-ethylquinolin-6-yl)amino)pyrimidin-2-yl)amino)-2-ethyl-5-methoxyphenyl)piperidin-4-yl)piperazin-1-yl)propyl)-2-oxobenzo[dloxazol-3(2H)-yl)piperidine-2,6-dione] | 71.36 | – | – | –
0.697 | 11.8 | 91.7 | CCOc1cc(N2CCC(N3CCN(CC4CN(c5cc(F)c([C@H]6CCC(=O)NC6=O)c(F)c5)C4)CC3)CC2)c(CC)cc1Nc1ncc(Br)c(Nc2ccc3nc(CC)ncc3c2P(C)(C)=O)n1 [Example 590, (R)-3-(4-(3-((4-(1-(4-((5-bromo-4-((5-(dimethylphosphoryl)-2-ethylquinazolin-6-yl)amino)pyrimidin-2-yl)amino)-5-ethoxy-2-ethylphenyl)piperidin-4-yl)piperazin-1-yl)methyl)azetidin-1-yl)-2,6-difluorophenyl)piperidine-2,6-dione] | 87.82 | – | – | –
